According to PubChem BioAssay (NCI):
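A five-concentration, 48-hour dose response in 96-well plates underlies each endpoint, interpolated linearly between surrounding concentrations. At the TGI there is no net growth.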

Key:
Assay in all cases: NCI tumour cell line growth inhibition, 48 h
LOX IMVI melanoma = test system: LOX IMVI melanoma
K-562 leukemia = test system: K-562 leukemia
OVCAR-4 ovarian = test system: OVCAR-4 ovarian
NCI-H522 lung = test system: NCI-H522 lung
KM12 colon = test system: KM12 colon
SK-OV-3 ovarian = test system: SK-OV-3 ovarian
MALME-3M melanoma = test system: MALME-3M melanoma
A549 NSCLC = test system: A549 NSCLC
SF-268 CNS = test system: SF-268 CNS
SF-295 CNS = test system: SF-295 CNS
NCI-H226 lung = test system: NCI-H226 lung
UACC-62 melanoma = test system: UACC-62 melanoma
MOLT-4 leukemia = test system: MOLT-4 leukemia
786-0 renal = test system: 786-0 renal
HCT-116 colon = test system: HCT-116 colon
HCT-15 colon = test system: HCT-15 colon
A498 renal = test system: A498 renal
TK-10 renal = test system: TK-10 renal
CCRF-CEM leukemia = test system: CCRF-CEM leukemia
M14 melanoma = test system: M14 melanoma
SNB-78 CNS = test system: SNB-78 CNS
ACHN renal = test system: ACHN renal
RXF 393 renal = test system: RXF 393 renal
IGROV1 ovarian = test system: IGROV1 ovarian
HOP-92 NSCLC = test system: HOP-92 NSCLC
HOP-62 NSCLC = test system: HOP-62 NSCLC
SNB-75 CNS = test system: SNB-75 CNS
SK-MEL-28 melanoma = test system: SK-MEL-28 melanoma
U251 CNS = test system: U251 CNS
COLO 205 colon = test system: COLO 205 colon
DMS 273 small cell lung = test system: DMS 273 small cell lung
RPMI-8226 leukemia = test system: RPMI-8226 leukemia
KM20L2 colon = test system: KM20L2 colon
DMS 114 small cell lung = test system: DMS 114 small cell lung
M19-MEL melanoma = test system: M19-MEL melanoma
SK-MEL-2 melanoma = test system: SK-MEL-2 melanoma
NCI-H23 lung = test system: NCI-H23 lung
XF 498 CNS = test system: XF 498 CNS
NCI-H460 lung = test system: NCI-H460 lung
HT29 colon = test system: HT29 colon
SN12C renal = test system: SN12C renal
SW-620 colon = test system: SW-620 colon
OVCAR-8 ovarian = test system: OVCAR-8 ovarian
SNB-19 CNS = test system: SNB-19 CNS
SK-MEL-5 melanoma = test system: SK-MEL-5 melanoma
RXF-631 renal = test system: RXF-631 renal
CAKI-1 renal = test system: CAKI-1 renal
OVCAR-5 ovarian = test system: OVCAR-5 ovarian
LXFL 529 NSCLC = test system: LXFL 529 NSCLC
EKVX NSCLC = test system: EKVX NSCLC
UO-31 renal = test system: UO-31 renal
UACC-257 melanoma = test system: UACC-257 melanoma
HOP-18 NSCLC = test system: HOP-18 NSCLC
SR leukemia = test system: SR leukemia
SF-539 CNS = test system: SF-539 CNS
HL-60(TB) leukemia = test system: HL-60(TB) leukemia
DLD-1 colon = test system: DLD-1 colon
OVCAR-3 ovarian = test system: OVCAR-3 ovarian
HCC-2998 colon = test system: HCC-2998 colon

Measured: TGI

CC(C)(C)N/N=C(\Cc1occc(=O)c1O)C(=O)Nc1ccc([N+](=O)[O-])cc1[N+](=O)[O-]
not listed: DLD-1 colon | OVCAR-3 ovarian | HCC-2998 colon
> 100 µM: all other assays above

C[C@@H](C1CCC2C3C(=CC(=O)[C@@]21C)[C@H](C)[C@]1(CCC(=O)O1)C1OC31)[C@H]1C[C@]2(C)O[C@@](C)(O1)OC2(C)C (some centres not stated)
not listed: OVCAR-4 ovarian | KM12 colon | MALME-3M melanoma | NCI-H226 lung | SNB-78 CNS | HOP-62 NSCLC | SNB-75 CNS | SK-MEL-2 melanoma | OVCAR-5 ovarian | UACC-257 melanoma | SR leukemia | OVCAR-3 ovarian | HCC-2998 colon
> 100 µM: all other assays above

CCCN(CCCN)/[N+]([O-])=N\O
0.831 µM: UACC-62 melanoma
0.921 µM: EKVX NSCLC
2.74 µM: KM20L2 colon
not listed: LOX IMVI melanoma | A498 renal | TK-10 renal | XF 498 CNS
> 100 µM: all other assays above
